One data set relates to APOE. Description: qPCR of LXR-regulated mRNA expression in HepG2: APOE. The format is cell-based, human. To be noted: HepG2, 24 h. In general terms: Quantitative PCR measures a nucleic acid by following its amplification.
For another data set, the system named is ABCA1. The data set can be described thus: qPCR of LXR-regulated mRNA expression in HepG2: ABCA1. In kind it is cell-based, human. To be noted: HepG2, 24 h.
The subject of another data set is HEK293T cells. The data set can be described thus: resazurin-based proliferation assay, HEK293T. In kind it is cell-based. On the procedure:
(§1) HepG2 or HEK293T cells were seeded in 96-well plates (4 × 10^4 cells per well). […] After 4, 14, and 24 h, the medium was aspirated, and the cells were incubated with 100 μM resazurin solution in Opti-MEM (prepared from a 0.15 mg/mL resazurin stock in DPBS) for 60 min. The metabolic activity was assessed by conversion of resazurin to resorufin, which was quantified by measuring absorbance at 570 nm and a reference wavelength of 600 nm. The cell count was calculated from a calibration curve with 0–10^5 cells per well in steps of 2 × 10^4.
(The colour change of resazurin is a common sign of viable cells or microbes.)

Data set [1] is described as follows: metabolic stability assay in rat liver microsomes. To be noted: 10 μM. The format is in vitro ADME. The procedure: The dissolved test compound (5 μL, final concentration 10 μM) was preincubated at 37 °C in 432 μL of phosphate buffer (0.1 M, pH 7.4) together with a 50 μL NADPH regenerating system (30 mM glucose-6-phosphate, 4 U/mL glucose-6-phosphate dehydrogenase, 10 mM NADP, and 30 mM MgCl2). After 5 min, the reaction was started by the addition of 13 μL of microsome mix from the liver of Sprague–Dawley rats (Invitrogen; 20 mg protein/mL in 0.1 M phosphate buffer) in a shaking water bath at 37 °C. The reaction was stopped by the addition of 500 μL of ice-cold methanol at 0, 15, 30, and 60 min. The samples were centrifuged at 5000 g for 5 min at 4 °C. The supernatants were analyzed, and the test compound was quantified by HPLC: The composition of the mobile phase is adapted tot the test compound in a range of 40-90% acetonitrile and 10-60% water (0.1% formic acid); flow rate: 1 mL/min; stationary phase: PurospherⓇ STAR, RP18, 5 μm, 125 × 4, precolumn: PurospherⓇ STAR, RP18, 5 μm, 4 × 4; detection wavelength: 254 and 280 nm; injection volume: 50 μL. […] The amounts of the test compound were quantified by an external calibration curve. Data are expressed as the mean ± SEM remaining compound from three independent experiments.
(Liver microsomes are a subcellular fraction often used to study metabolism.)

The test system of the next data set is HepG2 cells. Description: resazurin-based proliferation assay, HepG2. In kind it is cell-based. On the procedure: as §1
The target in the next data set is T1, LXRβ (Homo sapiens, UniProt P55055).
T1 construct: coding for the hinge region, and LBD of the canonical isoform of the respective nuclear receptor; expressed in transfected cells; host or cells: HEK293T
T1 sequence (P55055 222-460 limits assumed): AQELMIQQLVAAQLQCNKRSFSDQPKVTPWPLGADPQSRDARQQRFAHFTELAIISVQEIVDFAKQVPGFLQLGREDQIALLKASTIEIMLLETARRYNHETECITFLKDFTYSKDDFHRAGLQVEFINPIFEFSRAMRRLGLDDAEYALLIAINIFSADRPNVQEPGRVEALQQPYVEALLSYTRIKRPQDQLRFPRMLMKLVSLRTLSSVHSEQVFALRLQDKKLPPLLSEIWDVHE
Description: Gal4-LXRβ hybrid reporter gene assay. In kind it is cell-based. On the procedure:
The LXR-responsive reporter ABCA1-pGL3 was used for the full-length reporter gene assay.
The day before transfection, HEK293T cells were seeded in 96-well plates (4 × 10^4 cells/well). Before transfection, the medium was changed to Opti-MEM without any supplements. Transient transfection was carried out using Lipofectamine LTX reagent (Invitrogen) according to the manufacturer’s protocol with (a) pFR-Luc (Stratagene), pRL-SV40 (Promega), and the corresponding Gal4-fusion nuclear receptor plasmid or (b) the LXR-responsive reporter ABCA1-pGL3 and pRL-SV40 (Promega). […] Each concentration was tested in duplicate, and each experiment was repeated in at least three biologically independent repeats. […] Luminescence was measured with a Spark 10 M luminometer (Tecan Deutschland GmbH). Normalization of transfection efficiency and cell growth was done by division of firefly luciferase data by renilla luciferase data multiplied by 1000, resulting in relative light units (RLU). Fold activation was obtained by dividing the mean RLU of the tested compound at a respective concentration by the mean RLU of the untreated 0.1% DMSO control. […] Separate control experiments to exclude nonspecific reporter gene activation or VP16-mediated effects were performed following the same procedure in the absence of a nuclear receptor expression plasmid (pFR-Luc, pRL-SV40, and pECE-SV40-Gal4-VP16 only).

pIC50: −log10 of the molar value. “Also recorded” adds a separate entry of the source.

On to `CCN(C(=O)c1ccccc1)c1ccc(C(O)(C(F)(F)F)C(F)(F)F)cc1` [Compound 1, N-Ethyl-N-(4-[1,1,1,3,3,3-hexafluoro-2-hydroxypropan-2-yl]phenyl)benzamide], for which the “APOE mRNA expression” value in the data set on APOE (3 μM) was “induced”. In addition, the “ABCA1 mRNA expression” value with ABCA1 (3 μM) is reported as “induced”. Also, the antiproliferative effect entry with HEK293T cells (10 μM) and in the data set on HepG2 cells (10 μM) was “did not inhibit the proliferation” each time. The same molecule yielded a metabolic stability in data set [1] above 60 min. Also, on LXRβ (classification agonist, read-out: LXRb pEC50/pIC50 (converted)), the EC50 was 589 nM.

With `CS(=O)(=O)c1cccc(-c2ccc(CN(Cc3cccc(C(F)(F)F)c3Cl)CC(c3ccccc3)c3ccccc3)cc2)c1` [Compound 3, N-(2-Chloro-3-[trifluoromethyl]benzyl)-N-([3′-{methylsulfonyl}-{1,1′-biphenyl}-4-yl]methyl)-2,2-diphenylethan-1-amine], the “APOE mRNA expression” value in the data set with APOE (30 μM) is recorded as “did not significantly alter the expression; also recorded: only a weak impact”. Also, the “ABCA1 mRNA expression” value with ABCA1 (30 μM) was “did not significantly alter the expression; also recorded: only a weak impact”. Further, the antiproliferative effect entry in the data set on HEK293T cells (30 μM) and in the data set on HepG2 cells (30 μM) was “did not inhibit the proliferation” each time. Moreover, the metabolic stability in data set [1] was above 60 min. In addition, at LXRβ, the negative-log IC50 (pIC50) is 5.53.

The term pIC50 denotes −log10 of the IC50, conventionally taken in molar units.
